Laboratory results as given in US20250003989A1, “METHODS FOR TAUOPATHY DIAGNOSIS AND TREATMENT” (The Children`s Medical Center Corporation, priority 2021, published 2025).

Test system: naïve Tau
Experiment: In vitro second generation seeding without heparin, ThT assay
Settings: equimolar effective concentration of heparin as contained in the catalytic amount of 2b seed
Procedure: Seeds were generated following the procedure described above at 50 μM protein concentration. The sample was vigorously pipetted to evenly disperse fibrils, and was added at a 2.5 mol % (1.25 μM protein concentration) to a 50 μM sample of new protein. Aggregation was followed with ThioflavinT assays. Thioflavin T (ThT) assays for Beta-sheet content were conducted with 50 μM protein content, and […] ThT in a 384-well Corning plate. A BioTek synergy2 plate reader was used with temperature control set at 37° C.

naïve Tau, sequence (as listed by the source): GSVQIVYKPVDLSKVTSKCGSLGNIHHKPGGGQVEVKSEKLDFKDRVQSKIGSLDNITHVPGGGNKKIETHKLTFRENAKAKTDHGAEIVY

## heparin
  ThT fluorescence, heparin-only control: no detectable ThT fluorescence
